Test results: patent publication US9546194B2, “Aminosteroids for the treatment of a PTP1B associated disease” (Ohr Pharmaceutical Inc., priority 2012, dated 2017)

How the values were obtained:
[1] = molecular target: T1, full length tyrosine phosphatase PTP1B (Homo sapiens, UniProt P18031); test: Inhibition of PTP1B (pNPP hydrolysis, absorbance at 405 nm); type: biochemical; conditions: 5 μM aminosteroid analogue; pNPP substrate; read-out: PTP1B % Inhib. at (5 μM)
T1 construct: purchased
T1 sequence (P18031 1-435): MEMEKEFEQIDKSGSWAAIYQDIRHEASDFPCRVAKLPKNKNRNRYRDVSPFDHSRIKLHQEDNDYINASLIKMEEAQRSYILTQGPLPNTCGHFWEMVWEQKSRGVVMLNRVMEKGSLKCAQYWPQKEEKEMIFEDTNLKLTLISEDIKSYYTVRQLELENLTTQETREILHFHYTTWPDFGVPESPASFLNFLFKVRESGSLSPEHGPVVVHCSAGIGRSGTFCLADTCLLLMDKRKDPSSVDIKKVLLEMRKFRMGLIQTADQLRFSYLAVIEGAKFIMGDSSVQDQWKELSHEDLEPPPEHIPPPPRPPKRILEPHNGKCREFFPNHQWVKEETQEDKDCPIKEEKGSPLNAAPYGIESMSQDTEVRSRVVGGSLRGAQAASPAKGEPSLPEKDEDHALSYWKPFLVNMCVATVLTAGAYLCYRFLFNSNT
Experimental: (§1) The aminosteroid analogues were tested for inhibition against the commercially available full length tyrosine phosphatase PTP1B. The ability of each analogue to inhibit the activity of PTP1B was measured in the presence of 5 μM of the aminosteroid analogue. The assay uses para-nitro-phenyl phosphate (pNPP), a non-specific substrate to assess phosphatase activity. Phosphatase activity was based on the ability of PTP1B to catalyze the hydrolysis of pNPP to p-nitrophenol (pNP).

[2] = molecular target: T2, full length TCPTP (Homo sapiens, UniProt P17706); test: Inhibition of TCPTP (pNPP hydrolysis, same manner as PTP1B assay); type: biochemical; conditions: 200 μM inhibitor; pNPP substrate; read-out: TCPTP % Inhib. at (200 μM)
T2 construct: except full length TCPTP was used as the enzyme
T2 sequence (P17706 1-415): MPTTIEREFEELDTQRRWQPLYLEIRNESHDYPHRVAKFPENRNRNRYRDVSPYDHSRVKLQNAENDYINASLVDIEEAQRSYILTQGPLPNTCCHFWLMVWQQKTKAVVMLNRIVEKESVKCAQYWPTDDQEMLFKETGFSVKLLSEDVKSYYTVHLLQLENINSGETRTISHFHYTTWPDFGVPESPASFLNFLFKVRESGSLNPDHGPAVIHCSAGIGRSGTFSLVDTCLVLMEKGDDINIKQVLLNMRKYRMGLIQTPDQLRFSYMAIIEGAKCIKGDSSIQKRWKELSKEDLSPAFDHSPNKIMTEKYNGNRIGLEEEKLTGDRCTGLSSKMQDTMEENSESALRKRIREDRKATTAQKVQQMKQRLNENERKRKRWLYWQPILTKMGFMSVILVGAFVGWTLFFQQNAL
Experimental: as §1
The aminosteroid analogues were also tested for their ability to inhibit the tyrosine phosphatase TCPTP as an indication of their potential toxicity by the inhibition of the immune response. The TCPTP inhibition assay was done in the same manner as the PTP1B assay except full length TCPTP was used as the enzyme and the inhibitor was at a concentration of 200 μM. The results of the TCPTP inhibition assays are shown in Table 1, column 4 and show three compounds that inhibit TCPTP less than 50% even at a […] greater concentration.

[3] = Body weight change in ob/ob mouse; type: in vivo; conditions: ob/ob mice; 5 or 10 mg/kg ip every 3 days, 4 doses; % change in body weight vs study day 0, up to 30 days
Experimental: (§2) To determine in vivo efficacy of the aminosteroid analogues an ob/ob (Lep^ob) mouse model was used. Ob/ob mice are extensively used for screening of antidiabetic and/or anti-obesity agents. Ob/ob mice were treated with either saline or 5 or 10 mg/kg aminosteroid analogue every 3 days for a total of 4 doses via ip injection. Body weight, glucose tolerance and fasting blood glucose levels were measured for each group during the study. Each group had at least an N of 4 animals. All reagents and lab animals are commercially available.
Starting at study day 0, body weight measurements were taken every day for each group for up to 30 days. Percent change in body weight was calculated as the fractional response of body weight on study day X over the original body weight on study day 0.

[4] = test system: ob/ob (Lep^ob) mouse; test: Oral glucose tolerance test (OGTT) in ob/ob mouse; type: in vivo; conditions: ob/ob mice; for change in vivo: Mus musculus, 336 h, 5 or 10 mg/kg ip every 3 days, 4 doses, OGTT study day 14, 1.5 g/kg oral glucose, 0-120 min, read-out: AbAUC % Change From Saline; for reduction in AbAUC compared to saline control (significance): OGTT study day 14, p<0.05
Experimental: as §2
On study day 14, an oral glucose tolerance test (OGTT) was performed to assess glucose tolerance. At time 0, an oral glucose challenge (1.5 g/kg) was administered by oral gavage. At time points 0, 15, 30, 60, 90, and 120 min post glucose load, 25 μl of whole blood was withdrawn from the tail vein of the animal and the glucose level was measured using a glucose analyzer. The glucose concentration vs time was plotted and the above baseline area under the curve (AbAUC) of the glucose excursion time curve was determined using trapezoidal rule analyses.

[5] = test system: ob/ob (Lep^ob) mouse; test: Fasting blood glucose (FBG) in ob/ob mouse; type: in vivo; conditions: ob/ob mice; 5 or 10 mg/kg ip every 3 days, 4 doses; study day 14 after overnight fast
Experimental: as §2
On study day 13, all animal groups were fasted overnight. On study day 14, 25 μL of whole blood was collected and analyzed for the glucose level (mg/dL) using a glucose analyzer.

Structure (SMILES) | inhibition at 5 µM [1] [%] | inhibition at 200 µM [2] [%] | % BW Nader [3] [%] | change in vivo [4] [%] | reduction in AbAUC compared to saline control (significance) [4] | FBG % Change From Saline [5] [%]
COC(=O)CC[C@@H](C)[C@H]1CCC2C3C(CC[C@@]21C)[C@@]1(C)CC[C@H](NCCNC(C)C)C[C@H]1C[C@H]3O (stereo partly drawn) [MSI-2520] | 103 | 19 | 0.5 | -30.1 | significant reduction | 34.7
COC(=O)CC[C@@H](C)[C@H]1CCC2C3C(CC[C@@]21C)[C@@]1(C)CCC(NCCNC(C)C)C[C@@H]1C[C@H]3NS(C)(=O)=O (stereo partly drawn) [MSI-2527] | 102 | 15 | 0.0 | -33 | significant reduction | 32.2
COC(=O)CC[C@@H](C)[C@H]1CCC2C3C(CC[C@@]21C)[C@@]1(C)CC[C@@H](NCCCCNCc2cccnc2)C[C@@H]1C[C@H]3O (stereo partly drawn) [MSI-2510] | 72 | 23 | 1.6 | -32.9 | significant reduction | 12.0
COC(=O)CC[C@@H](C)[C@H]1CCC2C3C(CC[C@@]21C)[C@@]1(C)CC[C@H](NCCNC(C)C)C[C@@H]1C[C@H]3NC(C)=O (stereo partly drawn) [MSI-2532] | 53 | 4 | −0.8 | -56.6 | significant reduction | −0.7
